This note sets out measurements from patent publication US4493843A, “Indole and indoline carboxylic acid compounds and method of use” (May & Baker Limited, priority 1980, dated 1985).

Structures can show the parent of a compound that is named as a salt. Where two headings read alike, the source gives them in different places.

The subject of this assay is serum cholesterol and serum triglycerides. Put plainly: Hypolipidaemic activity in rats (compound in diet, last 7 of 10 days). It is filed as in vivo, Male Wistar rats. The note with it: Rattus norvegicus, po, 168 h, 7 days; for change in vivo at 0.1 % strength: 0.1 % w/w dose in diet; for change in vivo at 0.2 % strength: 0.2 % w/w dose in diet. The procedure: Hypolipidaemic Activity in Rats
Male Wistar rats each weighing between 120 and 150 g were caged in groups of eight and fed a powdered diet for 10 days. For the last 7 days of that period the test compound was administered orally by mixing the compound in the diet and allowing the animals to feed normally. Food consumption was measured on day 9 for each group.
At noon on day 10 the animals were killed by inhalation of carbon dioxide from solid carbon dioxide. A sample of blood was removed by cardiac puncture and the serum cholesterol and serum triglycerides were analysed by means of an autoanalyser.
Control groups (receiving only the normal, unmedicated diet) were included with each test.
The percentage reductions in the concentrations of serum cholesterol and serum triglycerides were calculated by comparison with the simultaneous controls, for each concentration of the test compound used.

Setting [1] is: read-out: % change in serum cholesterol compared with control.
Setting [2] is: read-out: % change in serum triglycerides compared with control.

Consider `CCCCCCCCCCCCCCCCCc1cc2cc(C(=O)O)ccc2[nH]1` [Compound E, 2-(n-heptadecyl)indole-5-carboxylic acid], for which, under setting [1], the change in vivo at 0.1 % strength is -42% and the change in vivo at 0.2 % strength is -54%. Under setting [2], the change in vivo at 0.1 % strength was -55% and the change in vivo at 0.2 % strength is -65%.
On the same counts, the results for `CCCCCCCCCCCCc1cc2cc(C(=O)O)ccc2[nH]1` [Compound Y, 2-(n-dodecyl)indole-5-carboxylic acid] are -20%, -30%, -51% and -80%.
With `CCCCCCCc1cc2ccc(C(=O)OCCCC)cc2[nH]1` [Compound AKK, n-butyl 2-(n-heptyl)indole-6-carboxylate], the change in vivo at 0.2 % strength under setting [1] was -3% and the change in vivo at 0.2 % strength under setting [2] was -10%.
On the same counts, the results for `CCCCCCCCCCCCCCCc1cc2c(C(=O)OCC)cccc2[nH]1` [Compound EE, ethyl 2-(n-pentadecyl)indole-4-carboxylate] are -5% and -2%.
`CCCCCCCCCCCCCCCCc1cc2cc(C(=O)O)ccc2[nH]1` [Compound OO, 2-(n-hexadecyl)indole-5-carboxylic acid]: the change in vivo at 0.2 % strength was -52% under setting [1] and -75% under setting [2].
`CCCCCCCCCCCc1cc2c(C(=O)O)cccc2[nH]1` [Compound W, 2-(n-undecyl)indole-4-carboxylic acid]: the change in vivo at 0.2 % strength by setting is: under setting [1], -3%; under setting [2], 22%.
In the case of `CCCCCCCCCCc1cc2cc(C(=O)O)ccc2[nH]1` [Compound M, 2-(n-decyl)indole-5-carboxylic acid], the change in vivo at 0.2 % strength runs as follows: under setting [1], -26%; under setting [2], -65%.
Turning to `CCCCCCCc1cc2cc(C(=O)OCC)ccc2[nH]1` [Compound DD, ethyl 2-(n-heptyl)indole-5-carboxylate], the change in vivo at 0.2 % strength is -6% under setting [1] and -25% under setting [2].
On the same counts, the results for `CCCCCCCCCCCCCCCc1cc2cc(C(=O)OCC)ccc2[nH]1` [Compound BB, ethyl 2-(n-pentadecyl)indole-5-carboxylate] are -19% and -39%.
On to `CCCCCCCCCc1cc2cccc(C(=O)O)c2[nH]1` [Compound WW, 2-(n-nonyl)indole-7-carboxylic acid], for which the change in vivo at 0.2 % strength was -3% under setting [1] and 45% under setting [2].
As to `CCCCCCCCCCCCCCCCC1CNc2ccc(C(=O)OC)cc21` (racemic) [Compound BNN, (RS)-methyl 3-(n-hexadecyl)indoline-5-carboxylate], the change in vivo at 0.2 % strength was 7% under setting [1] and -20% under setting [2].
On the same counts, the results for `CCCCCCCCCCCCCCCc1cc2c(C(=O)OCCCC)cccc2[nH]1` [Compound MM, n-butyl 2-(n-pentadecyl)indole-4-carboxylate] are 25% and -41%.
Regarding `CCCCCCCCCCCCCc1cc2cc(C(=O)O)ccc2[nH]1` [Compound H, 2-(n-tridecyl)indole-5-carboxylic acid], the change in vivo at 0.1 % strength under setting [1] was -15% and the change in vivo at 0.1 % strength under setting [2] is -26%. The change in vivo at 0.2 % strength was -48% under setting [1] and -68% under setting [2].
With `CCCCCCCCC1CNc2cc(C(=O)OC)ccc21` (racemic) [Compound CEE, (RS)-methyl 3-(n-octyl)indoline-6-carboxylate], the change in vivo at 0.2 % strength runs as follows: under setting [1], -16%; under setting [2], -16%.
`CCCCCCCc1cc2ccc(C(=O)O)cc2[nH]1` [Compound R, 2-(n-heptyl)indole-6-carboxylic acid]: the change in vivo at 0.2 % strength reads like this: under setting [1], -12%; under setting [2], -18%.
On the same counts, the results for `CCCCCCCCCCCCCCCCCCCCc1cc2cc(C(=O)O)ccc2[nH]1` [Compound AA, 2-(n-eicosyl)indole-5-carboxylic acid] are -36% and -57%.
On the same counts, the results for `CCCCCCCCCCCCCCCCCCCCc1cc2ccc(C(=O)OCCCC)cc2[nH]1` [Compound AQQ, n-butyl 2-(n-eicosyl)indole-6-carboxylate] are 6% and -12%.
On to `CCCCCCCCCCCCCCCCC1CNc2cc(C(=O)O)ccc21` (racemic) [Compound CDD, (RS)-3-(n-hexadecyl)indoline-6-carboxylic acid], for which the change in vivo at 0.2 % strength reads like this: under setting [1], -19%; under setting [2], -41%.
As for `CCCCCCCCCCCc1cc2ccc(C(=O)OCC(O)CO)cc2[nH]1` (racemic) [Compound CVV, (RS)-2,3-dihydroxyprop-1-yl 2-(n-undecyl)indole-6-carboxylate], the change in vivo at 0.1 % strength was -16% under setting [1] and -56% under setting [2].
As to `CCCCCCCCCCCC1Nc2cc(C(=O)O)ccc2C1C` (stereo not drawn) [Compound CNN, 2(RS),3(RS)-2-(n-undecyl)-3-methylindoline-6-carboxylic acid], the change in vivo at 0.2 % strength is, setting by setting: under setting [1], -31%; under setting [2], -72%.
In the case of `CCCCCCCCCCCCCCCCCCc1c[nH]c2ccc(C(=O)O)cc12` [Compound BSS, 3-(n-octadecyl)indole-5-carboxylic acid], the change in vivo at 0.2 % strength by setting is: under setting [1], -9%; under setting [2], -11%.
Regarding `CCCCCCCCCCCCCCCC1Cc2cc(C(=O)O)ccc2N1` (racemic) [Compound AAA, (RS)-2-(n-pentadecyl)indoline-5-carboxylic acid], the change in vivo at 0.2 % strength is -12% under setting [1] and -55% under setting [2].
Take `CCCCCCCCCCCC1Cc2cc(C(=O)O)ccc2N1C` (racemic) [Compound BJJ, (RS)-1-methyl-2-(n-undecyl)indoline-5-carboxylic acid]: the change in vivo at 0.2 % strength under setting [1] was -15% and the change in vivo at 0.2 % strength under setting [2] is -41%.
For `CCCCCCCCCCCCCCCCC1CNc2cc(C(=O)OC)ccc21` (racemic) [Compound CFF, (RS)-methyl 3-(n-hexadecyl)indoline-6-carboxylate], the change in vivo at 0.2 % strength reads like this: under setting [1], 6%; under setting [2], 10%.
As to `CCCCCCCCCCC1Cc2cc(C(=O)O)ccc2N1` (racemic) [Compound ACC, (RS)-2-(n-decyl)indoline-5-carboxylic acid], the change in vivo at 0.2 % strength was -26% under setting [1] and -71% under setting [2].
For the molecule `CCCCCCCCCc1cc2cc(C(=O)O)ccc2[nH]1` [Compound O, 2-(n-nonyl)indole-5-carboxylic acid], the change in vivo at 0.2 % strength under setting [1] was -13% and the change in vivo at 0.2 % strength under setting [2] was -44%.
As to `CCCCCCCCCCCCCCCCc1c[nH]c2ccc(C(=O)O)cc12` [Compound BHH, 3-(n-hexadecyl)indole-5-carboxylic acid], the change in vivo at 0.2 % strength reads like this: under setting [1], -6%; under setting [2], -10%.
For the molecule `CCCCCCCCCCCCCCCCCCCCc1cc2ccc(C(=O)O)cc2[nH]1` [Compound UU, 2-(n-eicosyl)indole-6-carboxylic acid], the change in vivo at 0.2 % strength was -15% under setting [1] and -29% under setting [2].
On to `CCCCCCCCCCCCCCCc1cc2ccc(C(=O)O)cc2[nH]1` [D sodium salt], for which the change in vivo at 0.1 % strength runs as follows: under setting [1], -10%; under setting [2], -18%.
With `CCCCCCCCCCCCCCCc1cc2ccc(C(=O)OC)cc2[nH]1` [Compound ANN, methyl 2-(n-pentadecyl)indole-6-carboxylate], the change in vivo at 0.2 % strength is 1% under setting [1] and -25% under setting [2].
Turning to `CCCCCCCCCCCCCCCCCCc1cc2ccc(C(=O)O)cc2[nH]1` [Compound V, 2-(n-octadecyl)indole-6-carboxylic acid], the change in vivo at 0.2 % strength under setting [1] was 3% and the change in vivo at 0.2 % strength under setting [2] was -1%.
For `CCCCCCCCCCCC1Cc2ccc(C(=O)O)cc2N1` (racemic) [Compound AFF, (RS)-2-(n-undecyl)indoline-6-carboxylic acid], the change in vivo at 0.2 % strength is, setting by setting: under setting [1], -38%; under setting [2], -58%.
On the same counts, the results for `CCCCCCCCCc1cc2c(C(=O)O)cccc2[nH]1` [Compound Z, 2-(n-nonyl)indole-4-carboxylic acid] are -14% and -14%.
In the case of `CCCCCCCc1cc2cc(C(=O)O)ccc2[nH]1` [Compound Q, 2-(n-heptyl)indole-5-carboxylic acid], the change in vivo at 0.2 % strength is, setting by setting: under setting [1], -10%; under setting [2], -14%.
On the same counts, the results for `CCCCCCCC1Cc2ccc(C(=O)O)cc2N1` (racemic) [Compound AEE, (RS)-2-(n-heptyl)indoline-6-carboxylic acid] are -22% and -37%.
As to `CCCCCCCCC1CNc2ccc(C(=O)O)cc21` (racemic) [Compound BQQ, (RS)-3-(n-octyl)indoline-5-carboxylic acid], the change in vivo at 0.2 % strength worked out at 11% under setting [1] and 31% under setting [2].
For the molecule `CCCCCCCCCCCCc1cc2cc(C(=O)OC)ccc2[nH]1` [Compound AVV, methyl 2-(n-dodecyl)indole-5-carboxylate], under setting [1], the change in vivo at 0.1 % strength was -16% and the change in vivo at 0.2 % strength was -21%. Besides, under setting [2], the change in vivo at 0.1 % strength was -65% and the change in vivo at 0.2 % strength was -80%.
